The record followed here is US20150283137A1, “6-oxo-1,6-dihydro-pyridazine derivative for the use for the treatment of hepatocellular carcinoma (HCC)” (MERCK PATENT GMBH, priority 2012, published 2015).

Series [1] deals with human MHCC97H liver tumor cells. In words: Subcutaneous MHCC97H tumor model. Format: in vivo, mice. The note with it: for anti-tumor activity (in words): established fast growing subcutaneous MHCC97H tumors; for T/C ratio: 5 days on and 2 days on. The procedure: Method: Male BalB/c nude mice (6-8 week old) where subcutaneously injected with human MHCC97H liver tumor cells and were divided into treatment groups (ten animals in one group) after the tumors were established (ca. 500 mm^3). Respective groups were administered orally with the 3-(1-{3-[5-(1-methyl-piperidin-4-ylmethoxy)-pyrimidin-2-yl]-benzyl}-6-oxo-1,6-dihydro-pyridazin-3-yl)-benzonitrile hydrochloride hydrate at different doses (10, 30 and 100 mg/kg) for 5 days on and […] or daily with sorafenib (50 mg/kg).

Series [2] concerns human primary HCC explants. The procedure: Method: Male BalB/c nude mice (6-8 week old) where subcutaneously transplanted with a primary HCC tumor fragment. Animals were divided into treatment groups (12 animals in one group) after the tumors were established. Respective groups were administered orally with the 3-(1-{3-[5-(1-methyl-piperidin-4-ylmethoxy)-pyrimidin-2-yl]-benzyl}-6-oxo-1,6-dihydro-pyridazin-3-yl)-benzonitrile hydrochloride hydrate at 100 mg/kg for 5 out of 7 days.

Another series concerns MHCC97H tumor fragments. In words: Orthotopic MHCC97H tumor model. The note with it: 100 mg/kg orally. The procedure:
Method: In male BalB/c nude mice (7-8 week old) MHCC97H tumor fragments (2-3 mm^3) where orthotopically implanted into the left lobe of the liver. After 1 week of intrahepatic implantation animals were divided into treatment groups (ten animals in one group). Respective groups were administered orally with 3-(1-{3-[5-(1-methyl-piperidin-4-ylmethoxy)-pyrimidin-2-yl]-benzyl}-6-oxo-1,6-dihydro-pyridazin-3-yl)-benzonitrile hydrochloride hydrate at 100 mg/kg/5 days on and 2 days off for 5 weeks. At the end of treatment, tumor size and tumor weight were measured, plasma AFP levels and lung metastases analyzed.

“Also recorded” adds a separate entry of the source.

In the case of `CNC(=O)c1cc(Oc2ccc(NC(=O)Nc3ccc(Cl)c(C(F)(F)F)c3)cc2)ccn1` [sorafenib, reference compound], the “anti-tumor activity (in words)” value in series [1] was “marginal anti tumor activity with no tumor regressions”. The compound also returned a T/C value in series [1] (sorafenib 50 mg/kg orally daily, end of treatment) of 27%. In addition, the “number of models with anti-tumor activity” value in series [2] (out of 9 models, sorafenib 50 mg/kg/5 out of 7 days) is 7.
Turning to `CN1CCC(COc2cnc(-c3cccc(Cn4nc(-c5cccc(C#N)c5)ccc4=O)c3)nc2)CC1.Cl.O` [3-(1-{3-[5-(1-methyl-piperidin-4-ylmethoxy)-pyrimidin-2-yl]-benzyl}-6-oxo-1,6-dihydro-pyridazin-3-yl)-benzonitrile hydrochloride hydrate], the “tumor growth delay (TGD, time to reach a tumor volume of 1000 mm^3)” value was 24 days in series [1] (10 mg/kg orally), 53 days in series [1] (30 mg/kg orally) and over 53 days in series [1] (100 mg/kg orally). For the same compound, the T/C ratio in series [1] (10 mg/kg orally, end of treatment, tumors ca. 500 mm^3 at start) is −57%; in series [1] (30 mg/kg orally, end of treatment), −93%; in series [1] (100 mg/kg orally, end of treatment) it was −93%. Moreover, the “anti-tumor activity (in words)” value in series [1] is “completely inhibited growth and induced regressions”. In addition, in series [2] (all mice), the “tolerability (body weight)” value is “well tolerated in all mice”. Moreover, the “anti-tumor activity compared with sorafenib monotherapy” value in series [2] (models LIM801 and LIM612 (strong signs of c-Met signaling)) was “better anti-tumor activity than sorafenib monotherapy”. For the same compound, the “further activity in primary explants (in words)” value in series [2] (nine primary explants, besides CR and SD) is recorded as “marginal activity in one additional model”. Further, the “complete responses (CR)” value in series [2] (nine subcutaneous established primary explants, 100 mg/kg 5 out of 7 days) is 1/9. The “number of models with significantly inhibited growth” value in series [2] (out of 9 models, 100 mg/kg/5 out of 7 days) is recorded as 4. The tolerability result in the series on MHCC97H tumor fragments (5 days on and 2 days off for 5 weeks) is recorded as “well tolerated”. In the series on MHCC97H tumor fragments (5 days on and 2 days off for 5 weeks, end of treatment at day 35, hydrochloride hydrate), the “anti-tumor activity on primary tumor (in words)” value is “complete regression in all mice; also recorded: primary tumor regression (p<0.001)”. Besides, the lung metastases entry with MHCC97H tumor fragments (end of treatment) is recorded as “reduction lung metastases (p<0.01)”. Moreover, the “AFP levels in plasma” value in the series with MHCC97H tumor fragments (end of treatment, hydrochloride hydrate) was “no AFP was measurable; also recorded: significantly reduced (p<0.001)”. Moreover, the body weight entry in the series with MHCC97H tumor fragments (followed throughout the study) was “no body weight loss could be detected”.
